Experimental findings from patent EP4741383A1, “COMPOUND AND USE THEREOF AS ANTI-CANCER DRUG” (Tyligand Bioscience (Shanghai) Limited, priority 2023, dated 2025) are described below.

In the experiment the test system is HCT116. Briefly: CellTiter-Glo cell proliferation inhibition, HCT116. Type of experiment: cell-based. Conditions: Homo sapiens, HCT-116; HCT116 (colorectal cancer cell line), 72 hours; read-out: Example IC50 (µM) HCT116. The text has this: This experiment used the CellTiter-Glo® Luminescent Cell Viability Assay kit from Promega to evaluate the inhibitory activity of the disclosed compounds on the proliferation of the following cell lines: 4T1 (mouse breast cancer cell line), A20 (mouse B-cell lymphoma cell line), A2780 (human ovarian cancer cell line), AsPC-1 (pancreatic cancer cell line), B16F10 (mouse melanoma cell line), BT549 (human breast cancer cell line), CT26 (mouse colon cancer cell line), EMT6 (mouse breast cancer cell line), HCT116 (colorectal cancer cell line), Jurket (acute leukemia cell line), KP-4 (pancreatic cancer cell line), LL/2 (mouse lung cancer cell line), MCF7 (breast cancer cell line), […] NCI-H358 (lung cancer cell line), NCI-H727 (gastric cancer cell line), NCI-1944 (lung cancer cell line), Pan 04.03 (pancreatic cancer cell line), SK-BR-3 (breast cancer cell line), THP-1 (leukemia cell line), TOV21G (ovarian cancer cell line), U87MG (glioblastoma cell line), and UM-UC-a (bladder cancer cell line).
All cell lines were purchased from Nanjing Kebai Biotechnology Co., Ltd. The following materials were also used in the experiment: RPMI-1640 media (HyClone, catalog number #SH30022.01), McCoy's 5A media (Thermo Fisher, catalog number #16600-082), MCDB 105 media (Sigma, catalog number #117-500), Medium 199 (Thermo Fisher, catalog number #11150-059), MEM media (Thermo Fisher, catalog number #11095-080), DMEM media (HyClone, catalog number #SH30027.01), fetal bovine serum (FBS) (ExCell, catalog number # M4530), Sodium Pyruvate (100Mm) (Thermo Fisher, catalog number #11360-070), and MEM NEAA (100X) (Thermo Fisher). […]
Cells were cultured according to the instructions provided by the cell supplier (Nanjing Kebai Biotechnology Co., Ltd.). […] Suspension or adherent cells were collected, and cell viability was determined using the trypan blue exclusion method, ensuring that cell viability was above 90%. […]
In general terms: ATP-based viability assays read luminescence as a measure of living cells.
The term IC50 denotes the midpoint of a concentration-inhibition curve. Consider `O=C(Nc1ccc(-c2cc3cc(F)c(-c4nnn[nH]4)cc3n2C2CCC2)cc1)C(=O)Nc1ccc(N2CCC3(CCC(O)C3)CC2)cc1` (stereo not drawn) [Example 100], for which the IC50 amounted to 0.044 µM.

`O=C(Nc1ccc(-c2csc(CO)c2)cc1)C(=O)Nc1ccc(-c2cc3cc(F)c(-c4nnn[nH]4)cc3n2C2CCC2)cc1` [Example 1]: the IC50 was determined as 0.111 µM. The result for `CC1(n2c(-c3ccc(NC(=O)C(=O)Nc4ccc(N5CCC6(CCOC6)CC5)cc4)cc3)cc3cc(F)c(-c4nnn[nH]4)cc32)CCC1` [Example 68] reads 0.078 µM.
